Patent US12146010B2, “Amine co-initiator mixture” (Arkema UK Limited, priority 2019, dated 2024)

Experiments:
[1] = UV curing experiments: passes under Hg lamp to tack-free / thumb-twist cure; settings: approx. 16 m/min belt speed, 0.20 g amine in 4.0 g resin with 1% 2-ITX and 4% BP
Experimental: The following example illustrates the high curing speed of co-initiators which contain the compound of Formula I and the ancillary amine. For comparison, the commercially available amine co-initiators SpeedCure EDB (Lambson Limited) and diffusion-hindered polymeric amine SpeedCure 7040 (Lambson Limited) were also tested. Additionally, the pure amines AC1-AC5 were tested alongside the mixtures provided by this invention, of which the mixtures AM1-AM6 are representative examples.
The amine co-initiators or co-initiator mixtures (0.20 g) were added to a resin mixture (4.0 g) containing 1% w/w SpeedCure 2-ITX (Lambson Limited) and 4% w/w SpeedCure BP (Lambson Limited) in 70:30 ethoxylated bisphenol A dimethacrylate (EO/phenol 10):trimethylolpropane triacrylate with stirring at 15-20° C. until all solid material had dissolved.
Formulations were cured at 6 and 24 μm film thicknesses under Hg lamp using a Dymax curing instrument with approx. 16 m/min belt speed. The number of passes under the lamp required to give a ‘tack-free’ (TF) coating (as determined when the surface of the coating no longer feels sticky when lightly touched) or full cure as determined by the ‘thumb-twist’ test (TT) (i.e. until no visible mark is made when a thumb is pressed down firmly onto the coating with a twisting motion) are given in Table 3.

[2] = Solubility of amines and amine mixtures in acrylate resins; assay type: physicochemical; settings: for Solubility (% w/w at ~15-20° C.): stays in solution at least 7 days, above 10% w/w not tested; for Dissolution of the solid material: at 1% w/w in the acrylate resins
Experimental: This example illustrates the improved solubility of the co-initiator mixtures compared to single component amine co-initiator compositions, illustrating the benefit of providing a composition comprising both the compound of Formula I and the ancillary amine. For comparison, the solubility of amine mixtures as provided by this invention, of which mixtures AM1-AM6 are representative examples, were tested alongside single component formulations comprising only the amines AC1-AC5.
Mixtures of amine synergists were prepared using one of the methods described above.
The solid amines AC1-AC5 or mixtures of amines AM1-AM6 were added portion-wise in 1% w/w portions to stirred 5.0 g samples of the following acrylate resins and the samples were stirred at 15-20° C. until all solid material was completely dissolved: HDDA (1,6-hexanediol diacrylate), TMPTA (trimethylolpropane triacrylate), TPGDA (tripropyleneglycol diacrylate). At the concentrations given below (Table 2a-2k) all solids remained in solution for at least 7 days at 15-20° C. unless otherwise stated. In cases where the solids began to crystallise out of solution within this time the mixtures were warmed to approx. 40° C. to re-dissolve the solids and the concentrations were adjusted to the given values by the addition of extra resin, whereupon the solids remained dissolved at the adjusted concentration for at least 7 days at 15-20° C. Solubility above 10% w/w was not tested in any case. The weight % is based on the total weight of the mixture.

[3] = in HDDA (1,6-hexanediol diacrylate)
[4] = in TMPTA (trimethylolpropane triacrylate)
[5] = in TPGDA (tripropyleneglycol diacrylate)

Row | Compound | No. of Passes Required, TF (tack-free) ([1]; 6 μm film) [passes] | No. of Passes Required, TT (thumb-twist, full cure) ([1]; 6 μm film) [passes] | No. of Passes Required, TF (tack-free) ([1]; 24 μm film) [passes] | No. of Passes Required, TT (thumb-twist, full cure) ([1]; 24 μm film) [passes] | Solubility (% w/w at ~15-20° C.) [2, 3] [% w/w] | Solubility (% w/w at ~15-20° C.) [2, 4] [% w/w] | Solubility (% w/w at ~15-20° C.) [2, 5] [% w/w] | Time until solid crystallised out of solution ([2]; initially dissolved at 2% w/w, all three resins) [h] | Dissolution of the solid material [2]
1 | CCOC(=O)c1ccc(N(C)C)cc1 [SpeedCure EDB, ethyl 4-(dimethylamino)benzoate, reference compound] | 1 | 6 | 1 | 2 | – | – | – | – | –
2 | CCC(COC(=O)c1ccc(N(C)C)cc1)(COC(=O)c1ccc(N(C)C)cc1)COC(=O)c1ccc(N(C)C)cc1 [AC3] | – | – | – | – | <2 | <2 | <2 | ≤ 24 | –
3 | CN(C)c1ccc(C(=O)OCC(COC(=O)c2ccc(N(C)C)cc2)(COC(=O)c2ccc(N(C)C)cc2)COC(=O)c2ccc(N(C)C)cc2)cc1 [AC4] | – | – | – | – | <1 | <1 | <1 | – | would not dissolve
4 | CN(C)c1ccc(C(=O)OCC(COC(=O)c2ccc(N(C)C)cc2)OC(=O)c2ccc(N(C)C)cc2)cc1 [AC5] | – | – | – | – | <1 | <1 | <1 | – | would not dissolve
5 | CCC(CO)(COCC(CC)(COC(=O)c1ccc(N(C)C)cc1)COC(=O)c1ccc(N(C)C)cc1)COC(=O)c1ccc(N(C)C)cc1 (stereo not drawn) [AC2] | 1 | 6 | 1 | 2 | 10 | 10 | 10 | – | –
6 | CCC(COCC(CC)(COC(=O)c1ccc(N(C)C)cc1)COC(=O)c1ccc(N(C)C)cc1)(COC(=O)c1ccc(N(C)C)cc1)COC(=O)c1ccc(N(C)C)cc1 [AC1] | 1 | 5 | 1 | 2 | 5 | 4 | 3 | – | –
